In US7655801B2, “Substituted carbamic acid quinolin-6-yl esters useful as acetylcholinesterase inhibitors” (priority 2004, dated 2010):

Experiments:
[1] = system: scopolamine induced deficit (dementia/amnesia) in mice; assay: Scopolamine induced amnesia, single trial passive avoidance test; format: in vivo; conditions: test compounds 20 μmol/kg orally, donepezil 10 mg/kg po; for % Learning ([2nd Trial − 1st trial/1st trial] × 100): scopolamine group 33.6, trained control 274.9; for change in vivo at 20 µmol/kg: Mus musculus, read-out: % Improvement in Learning (% Learning in treated gp − % Learning in Scopolamine gp)
Description: Single trial passive avoidance is widely used as experimental test to assess learning memory functions in rodents.
Passive Avoidance Test (in vivo): Study was conducted in adult Swiss male mice of 3-4 months (wt. 20-25 g) which were kept in standard housing condition with 12 h light and dark cycle. Food and water were available ad libitum. […] Passive avoidance test was studied by a computerized shuttle box (Columbus Instruments, Ohio, USA) provided with a software program PACS 30. The shuttle box comprises of two compartments, isolated by an automated door. […] Each mouse was placed in the bright compartment and on transfer into the dark compartment it was given an electric shock (0.5 mA for 5 s) through floor grid. Transfer of mice from bright to dark compartment was recorded as transfer latency time (TLT) in seconds. TLT was recorded in control and treated groups (1st Trial, acquisition) and then after 24 hours (2nd Trial, retention). An increase in the TLT on 2nd Trial (retention) as compared to 1st Trial (acquisition) was taken as the criterion for successful learning and memory (cognitive activity).
Scopolamine induced deficit (Dementia): Scopolamine a muscarinic antagonist, known to produce impairment in cognitive functions (dementia) in human as well as in experimental animals, was used to produce deficit (no significant increase on 2nd trial) in passive avoidance learning. Scopolamine was administered 5 min prior to 1st trial. Reversal of scopolamine induced deficit i.e. significant increase in 2nd trial by test substance indicates potential anti-dementia activity. […].
Drug administration: Scopolamine was administered 5 min prior to 1st trial in test group. Each test compound was administered orally in dose of 20 μmol/kg (1% aq. suspension in gum acacia) 1 hour prior to 2nd trial in scopolamine treated mice (n=5). Scopolamine control group received 1 ml/kg of vehicle (1% aq. suspension in gum acacia) orally. […] Donepezil (10 mg/kg, po, as 1% aqueous suspension in gum acacia) was used as standard drug and given 1 hour prior to 2nd trial in scopolamine treated mice.
Statistical analysis: Mean values and standard error (S.E.) of mean were calculated for TLT and specific activity of AChE in the different regions of brain samples of each group. The significance of difference between the values of AChe activity and TLT between the groups was determined by one-way ANOVA test that followed by Dunnett's test.

AChE = molecular target: T1, AChE (Rattus norvegicus, UniProt P37136); assay: Inhibitive effect on acetylcholinesterase activity (Ellman method, rat brain homogenate supernatant); format: biochemical; conditions: for Cholinesterase Enzyme Activity in presence of active drug: control AChE activity 0.014446; for % Cholinesterase Enzyme Activity in presence of active drug: relative to control AChE activity
T1 construct: Aliquots of this supernatant was diluted in the ratio of 1:10 and used as a source of enzyme for the assay; from tissue; host or cells: whole brain of adult male SD rats; 10% homogenate with Triton X-100, 100,000 x g supernatant
T1 sequence (P37136 32-614): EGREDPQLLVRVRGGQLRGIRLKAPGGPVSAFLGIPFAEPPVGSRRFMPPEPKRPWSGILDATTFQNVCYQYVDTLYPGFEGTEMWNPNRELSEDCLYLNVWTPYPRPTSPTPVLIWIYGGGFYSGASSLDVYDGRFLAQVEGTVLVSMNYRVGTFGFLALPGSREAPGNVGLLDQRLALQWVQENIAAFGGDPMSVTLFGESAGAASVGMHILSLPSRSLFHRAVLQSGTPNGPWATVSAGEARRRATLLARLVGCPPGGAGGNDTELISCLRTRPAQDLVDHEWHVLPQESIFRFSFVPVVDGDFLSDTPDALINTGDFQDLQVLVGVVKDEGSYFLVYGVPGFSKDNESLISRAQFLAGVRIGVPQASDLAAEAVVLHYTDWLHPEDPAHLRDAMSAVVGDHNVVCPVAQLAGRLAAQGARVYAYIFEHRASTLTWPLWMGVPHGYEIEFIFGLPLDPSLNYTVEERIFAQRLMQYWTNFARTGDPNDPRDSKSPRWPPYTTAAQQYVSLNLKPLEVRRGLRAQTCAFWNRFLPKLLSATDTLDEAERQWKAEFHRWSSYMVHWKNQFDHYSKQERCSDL
Description: The study was conducted in adult SD male rats (200-250 g) Rats were perfused under mild ether anesthesia through heart with ice cooled normal saline (0.9% NaCl) to reduce blood-borne cholinesterase from brain. After perfusion whole brain was taken out. 10% (w/v) homogenate of brain was prepared first by homogenizing in Ultra-Turrax T25 homogenizer at a speed of 9500 rpm thrice giving intervals for few seconds in between the runs, with sodium phosphate buffer (30 mmol/lit, pH 7.0). Sodium phosphate buffer was taken in a volume half to the final volume required for 10% homogenate. 1% Triton X-100 (1% w/v in 30 mmol/lit. sodium phosphate buffer, pH 7.0) is then added in a volume to make the final volume for 10% homogenate, slowly while stirring the homogenate on ice.
Kinetic profile of the enzyme activity was studied spectrophotometrically at 412 nm at an interval of 15 s. Assay for each sample was run in duplicate and each experiment was performed thrice.
[…] Tacrine (1 μmol) was used as standard AChe inhibitor (standard control). The AChe inhibitory activity was calculated on the basis of % decrease change from control values i.e. AChe acivity without incubation with any standard or test drug.

[2] = scopolamine treated mice, 1 hour prior to 2nd trial

| Structure (SMILES) | 2nd TRIAL (retention, after 24 hours) transfer latency time (TLT) [1, 2] [s] | % Learning ([2nd Trial − 1st trial/1st trial] × 100) ([1]; scopolamine treated mice) [%] | % Improvement in Learning (% Learning in treated gp − % Learning in Scopolamine gp) [1] [%] | also measured |
| --- | --- | --- | --- | --- |
| CCCCCCNC(=O)Oc1ccc2c(c1)CCCN2Cc1ccccc1 [2h, Hexyl-carbamic acid 1-benzyl-1,2,3,4-tetrahydro-quinolin-6-yl ester] | 205 | 122.8 | 89.2 |  |
| COc1cc2c(cc1OC)C(=O)C(CC1CCN(Cc3ccccc3)CC1)C2 (centres unmarked) [DONEPEZIL, donepezil, reference compound] | 245 | 168 | 134.4 |  |
| O=C(Nc1ccccc1Cl)Oc1ccc2ncccc2c1 [1c] | 230 | 156.7 | 123.09 | 1st TRIAL (acquisition) transfer latency time (TLT) [1, 2]: 89.6 s |
| CCCCCCCNC(=O)Oc1ccc2ncccc2c1 [1b, Heptyl-Carbamic Acid quinolin-6-yl ester] | 238 | 140.4 | 106.8 |  |
| CN1CCCc2cc(OC(=O)Nc3ccc(Br)cc3)ccc21 [2r, (4-bromophenyl)carbamic acid 1-methyl-1,2,3,4-tetrahydroquinolin-6-yl ester] | 242 | 95.6 |  | change in vivo at 20 µmol/kg ([1]; scopolamine treated mice): 62% |
| O=C(Nc1ccccc1Cl)Oc1ccc2c(c1)CCCN2Cc1ccccc1 [2i, (2-Chloro-phenyl)carbamic acid 1-benzyl-1,2,3,4-tetrahydro-quinolin-6 yl ester] | 186.4 | 123.2 | 89.6 | Cholinesterase Enzyme Activity in presence of active drug (AChE; drug conc. 0.1 μm): 0.01351 μmol/mg of protein/min; % Cholinesterase Enzyme Activity in presence of active drug (AChE; drug conc. 0.1 μm): 93.54%; Cholinesterase Enzyme Activity in presence of active drug (AChE; drug conc. 0.3 μm): 0.01211 μmol/mg of protein/min; % Cholinesterase Enzyme Activity in presence of active drug (AChE; drug conc. 0.3 μm): 83.87%; Cholinesterase Enzyme Activity in presence of active drug (AChE; drug conc. 1 μm): 0.01071 μmol/mg of protein/min; % Cholinesterase Enzyme Activity in presence of active drug (AChE; drug conc. 1 μm): 74.19%; Cholinesterase Enzyme Activity in presence of active drug (AChE; drug conc. 3 μm): 0.007456 μmol/mg of protein/min; Cholinesterase Enzyme Activity in presence of active drug (AChE; drug conc. 10 μm): 0.001864 μmol/mg of protein/min; % Cholinesterase Enzyme Activity in presence of active drug (AChE; drug conc. 10 μm): 12.90%; % Cholinesterase Enzyme Activity in presence of active drug (AChE): 51.61% |
| O=C(Nc1cccc(Br)c1)Oc1ccc2c(c1)CCCN2 [2c, (3-Bromo-phenyl)-carbamic acid 1,2,3,4-tetrahydro-quinolin-6-yl ester] | 195 | 101 | 67.4 |  |
| CN1CCCc2cc(OC(=O)Nc3ccc(Cl)c(C(F)(F)F)c3)ccc21 [2q, (4-Chloro-3-trifluoromethyl-phenyl)-carbamic acid 1-methyl-1,2,3,4-tetrahydro-quinolin-6-yl ester] | 218 | 109 |  | change in vivo at 20 µmol/kg ([1]; scopolamine treated mice): 76% |
